Test system: BxPC3 tumors
Assay: Protocol 146: ^212Pb-DOTAM biodistribution and absorbed dose estimation after PRIT
Type: in vivo, SCID mice
Conditions: for Mean absorbed dose, RBE = 1 / Mean absorbed dose, RBE = 5: 20 μCi pretargeted ^212Pb-DOTAM, tumor-bearing SCID
Description: Protocol 146 was designed to provide in vivo ^212Pb-DOTAM distribution data after PRIT for estimations of the absorbed radioactive dose to tumor and normal tissues, in SCID mice carrying s.c. BxPC3 tumors. The quenching of ^212Pb-DOTAM was performed using Ca (see example 34).
Pretargeting was performed by injection of CEA-DOTAM BsAb, followed 7 days later by the CA. After 24 hours, the ^212Pb-DOTAM was administered. Groups of mice were sacrificed at multiple time points from 5 minutes to 48 hours after the radioactive injection, and blood and organs harvested for radioactive measurement. Excrements were sampled at selected time points by use of metabolic cages to assess the excretion rate of the radioactive compound. Absorbed doses were finally calculated through established methods using the resulting time-activity curves.
Solid xenografts were established by s.c. injection of BxPC3 cells into SCID mice (Envigo) aged 8 weeks.
Mice in group E and F were individually housed (i.e. one mouse per cage) in grilled-floor metabolic cages. Urine and feces were collected from each cage 2, 6, and 24 hours after the radioactive injection, and the individual samples subsequently measured for radioactivity. Mice in group F were transferred to a regular cage 24 hours p.i.
Blood/serum was collected from all mice through retro-orbital bleeding before termination. After euthanasia, the following additional organs and tissues were harvested for radioactivity measurement and calculation of % ID/g: bladder, uterus, small intestine, colon, spleen, pancreas, kidneys, stomach, liver, lung, heart, brain, femoral bone, skin, muscle, abdominal fat, tail, and tumor.
Absorbed doses were calculated following the formalism outlined in Pamphlet No. 21 from the Medical Internal Radiation Dose (MIRD) Committee (Bolch W E, Eckerman K F, Sgouros G, and Thomas S R. J Nucl Med 2009; 50:477-484).
Formally, the absorbed dose D(rT) in a target tissue or region rT is calculated as the time-integral of the activity A(rS, t) multiplied by the absorbed dose rate per unit activity S(rT ←rS), summed over all source regions rS. Given that the vast majority of energy released by the ^212Pb decay chain comes from alpha radiation and furthermore by the much higher biological effectiveness of alpha radiation (as characterized by the relative biological effectiveness, RBE) two approximations were made: • 1. the energy is absorbed locally due to the short range of the alpha particles, which means that only the term S(rT←rT) is considered, and • 2. the contribution from beta and gamma radiation is neglected.
With Δα being the energy released by alpha decays, or rather the sum of the mean energies released by alpha decays in the decay chain of ^212Pb, here expressed in units J/(μCi·h), the absorbed dose in a target tissue or region rT is calculated by the formula: […]
The calculations are based on the composite (average) decay-corrected radioactive concentration at time t, expressed as [% ID/g]t. In a first step, these are transformed into radioactive concentrations as μCi per kg tissue weight for the target tissue rT:
A0[μCi]is the injected activity and λ is the exponential decay rate for ^212Pb, 0.0651 h^−1 (corresponding to the 10.6-hour half-life).
In a second step, the radioactive concentration was integrated over time for each tissue. This was achieved using the “Linear Log Trapezoidal calculation method” in the pharmacokinetic software Phoenix WinNonlin 6.4 (Certara USA, Inc., 100 Overlook Center, Suite 101, Princeton, NJ 08540 USA). The model type “Plasma” was used with uniform weighting.
In the final step, absorbed doses were calculated by multiplying the time integrals of the radioactive concentration by the energy release Δα=170·10^−6J/(μCi·h).

`NC(=O)CN1CCN(CC(N)=O)CCN(CC(N)=O)CCN(CC(N)=O)CC1.[212Pb+2]` [^212Pb-DOTAM] was tested, and the “accumulation of radioactivity in tumor” value (5 minutes after injection, pretargeted by CEA-DOTAM BsAb) was 17 % ID/g, the “Mean absorbed dose, RBE = 1” value (Blood) was 0.72 Gy and the “Mean absorbed dose, RBE = 5” value (Blood) was 3.60 Gy. The “Mean absorbed dose, RBE = 1” value (Brain) was 0.04 Gy, the “Mean absorbed dose, RBE = 5” value (Brain) was 0.19 Gy and the “Mean absorbed dose, RBE = 1” value (Colon) was 0.43 Gy. For the same compound, the “Mean absorbed dose, RBE = 1” value (Femoral bone) was 0.27 Gy, the “Mean absorbed dose, RBE = 1” value (Heart) was 0.33 Gy and the “Mean absorbed dose, RBE = 1” value (Liver) was 0.22 Gy. For the same compound, the “Mean absorbed dose, RBE = 1” value (Muscle) was 0.29 Gy, the “Mean absorbed dose, RBE = 1” value (Pancreas) was 0.36 Gy and the “Mean absorbed dose, RBE = 5” value (Pancreas) was 1.80 Gy. The “Mean absorbed dose, RBE = 5” value (Serum) was 8.20 Gy, the “Mean absorbed dose, RBE = 1” value (Skin) was 0.47 Gy and the “Mean absorbed dose, RBE = 1” value (Small intestine) was 0.22 Gy. For the same compound, the “Mean absorbed dose, RBE = 1” value (Spleen) was 0.27 Gy, the “Mean absorbed dose, RBE = 1” value (Stomach) was 0.24 Gy and the “Mean absorbed dose, RBE = 5” value (Stomach) was 1.20 Gy. For the same compound, the “Mean absorbed dose, RBE = 1” value (Tail) was 0.54 Gy and the “Mean absorbed dose, RBE = 1” value (Uterus) was 0.61 Gy.
